Legend:
[1] = tested on: T1, Gaa1 (E. gracilis D-galacturonate reductase); assay: NAD(P)H oxidation, absorbance at […] nm; assay type: biochemical, Euglena gracilis; settings: 1 mM NADPH, 0.1 M Na-phosphate pH 7, 30°C
T1 construct: full-length 420 aa, C-terminal 6xHis tag kept, synthetic codon-optimized gene expressed in S. cerevisiae, IMAC purified, ~45 kDa; primer-encoded N-terminus MVDVLMVGT

[2] = tested on: T1, Gaa1 (E. gracilis D-galacturonate reductase); assay: reverse reaction with NADP; assay type: biochemical, Euglena gracilis; settings: 1 mM NADP, 0.1 M Na-phosphate pH 7, 30°C
Excerpt: reverse reaction with NADP on Gaa1 (E. gracilis D-galacturonate reductase)

| Km [1] | Km [2] | Compound |
| --- | --- | --- |
| 300 µM |  | O=C(O)[C@H]1OC(O)[C@H](O)[C@@H](O)[C@H]1O (stereo partly drawn) [GalUA, D-galacturonate] |
|  | 700 µM | O=C(O)[C@@H](O)[C@H](O)[C@H](O)[C@@H](O)CO [L-galA, L-galactonate] |

Reference: paper PMC9192788, “Identification of a D-galacturonate reductase efficiently using NADH as a cofactor” (Biotechnology Reports, 2022)
